The source made the active and inactive calls.
What was measured:
HEK293 [1] = test: cells; assay type: functional, cell-based; conditions: Homo sapiens
[2] = biological target: Nuclear receptor subfamily 0 group B member 1 (Homo sapiens, UniProt P51843); test: Luminescence-based cell-based high throughput dose response assay for inhibitors of the orphan nuclear receptor subfamily 0, group B, member 1 (DAX1; NR0B1). [Related pubchem assays (depositor defined):AID504766, AID504790]; assay type: functional
CAAX prenyl protease 2 [3] = biological target: T1, CAAX prenyl protease 2 (Homo sapiens, UniProt Q9Y256); test: inhibition of Ras-converting CAAX endoprotease – biochemical, plate reader, dry powder samples, dose response (AID 588848)
CAAX prenyl protease 2 [4] = biological target: T2, CAAX prenyl protease 2 (Saccharomyces cerevisiae S288c, UniProt Q03530); test: inhibition of Rce1p peptide cleavage – biochemical, plate reader, dry powder retest, dose response (AID 588851)
T2 sequence (Q03530 whole entry): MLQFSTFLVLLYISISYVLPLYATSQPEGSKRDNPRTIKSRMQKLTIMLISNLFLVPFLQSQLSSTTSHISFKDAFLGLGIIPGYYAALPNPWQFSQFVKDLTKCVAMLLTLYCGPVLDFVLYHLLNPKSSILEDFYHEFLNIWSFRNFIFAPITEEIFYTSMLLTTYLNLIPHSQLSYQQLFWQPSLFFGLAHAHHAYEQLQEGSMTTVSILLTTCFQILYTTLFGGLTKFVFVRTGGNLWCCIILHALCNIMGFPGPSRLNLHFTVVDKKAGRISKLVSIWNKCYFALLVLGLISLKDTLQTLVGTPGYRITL

[5] = biological target: T3, Polyadenylate-binding protein 1 (Homo sapiens, UniProt P11940); test: MLLE binding blockers, Cy5 peptide tracer – biochemical, fluorescence polarization, Cy5-PAM2 peptide, secondary, miRNA deadenylation inhibitor project, dose response (AID 602260); assay type: functional; conditions: read-out: IC50_Mean
[6] = biological target: Glucose-6-phosphate 1-dehydrogenase (Homo sapiens, UniProt P11413); test: inhibition of Homo sapiens G6PD, dose series – biochemical, fluorescence, selectivity assay for P. falciparum G6PD inhibitor project, dose response (AID 504792); assay type: functional
[7] = biological target: Transitional endoplasmic reticulum ATPase (Homo sapiens, UniProt P55072, C522A); test: C522A mutant p97 ATPase inhibitors, dose response, counter-screen for p97 inhibitor project, biochemical, luminescence (AID 1544)
Beta-arrestin-1 = Beta-arrestin-1 (Homo sapiens, UniProt P49407); test: beta-arrestin/AP2 interaction blockers, potency – biochemical, cherry pick 1, beta2-adaptin appendage, flow cytometry, dose response (AID 588783); assay type: functional
Genome polyprotein = Genome polyprotein (dengue virus type 2, UniProt P29990); test: flavivirus cap methylation enzyme inhibition – biochemical, confirmation dose response, primary screen (AID 588689); assay type: functional
[8] = biological target: T3, Polyadenylate-binding protein 1; test: MLLE domain peptide-binding blockers, IC50 – biochemical, fluorescence polarization, FITC-PAM2 peptide, dose response (AID 602259); assay type: functional; conditions: read-out: IC50_Mean
Caspase-6 = biological target: T4, Caspase-6 (Homo sapiens, UniProt P55212); test: inhibition of CASP6 peptide cleavage – biochemical, VEID-R110 fluorescence, cherry-pick, dose response (AID 720632)
T4 sequence (P55212 whole entry): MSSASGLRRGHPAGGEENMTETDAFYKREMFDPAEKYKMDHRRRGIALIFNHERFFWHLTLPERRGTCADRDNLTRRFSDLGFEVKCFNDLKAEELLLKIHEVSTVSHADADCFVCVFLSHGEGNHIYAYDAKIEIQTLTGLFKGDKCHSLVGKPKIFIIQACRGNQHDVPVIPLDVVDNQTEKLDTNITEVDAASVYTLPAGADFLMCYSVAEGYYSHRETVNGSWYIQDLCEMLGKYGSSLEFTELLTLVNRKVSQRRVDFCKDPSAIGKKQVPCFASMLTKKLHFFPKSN

[9] = biological target: Transitional endoplasmic reticulum ATPase (Homo sapiens, UniProt P55072); test: p97 ATPase inhibitors, dose response, biochemical (AID 1534)
CAAX prenyl protease 2 [10] = biological target: T2, CAAX prenyl protease 2; assay type: biochemical
CAAX prenyl protease 2 [11] = biological target: T1, CAAX prenyl protease 2; test: inhibition of Ras-converting CAAX protease Rce1 – biochemical, yeast membranes, quenched-peptide fluorescence, cherry-pick, dose response (AID 588849)
[12] = Late-stage probe development counterscreen for inhibitors of the Hepatitis C Virus non-structural protein 3 helicase (NS3): luminescence-based cell-based dose response assay to determine whether compounds that inhibit replication of HCV RNA replicon are cytotoxic. [Related pubchem assays (depositor defined):AID1800, AID1830, AID1845, AID1943, AID1945, AID2172, AID2173, AID2474, AID2476]; assay type: functional
NS3 = NS3 (Hepatitis C virus, UniProt A3EZJ3); test: PubChem AID 2173; set-up: species or system Hepacivirus hominis
[13] = biological target: Voltage-gated inwardly rectifying potassium channel KCNH2 (Homo sapiens, UniProt Q12809); conditions: Potency;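 also: confirmatory quantitative high-throughput screen measuring inhibition of hERG channel activity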
HEK293 [14] = test: HEK293T cell viability loss, resazurin readout – resazurin fluorescence, cytotoxicity control for NF-kB activator project, SAR follow-up (AID 493251); assay type: functional, cell-based; conditions: Homo sapiens
[15] = NIH-3T3 fibroblast cytotoxicity, dose response, cytotoxicity control, cell-based, fluorescence, Alamar Blue, secondary assay (AID 2327); assay type: functional;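 also: NIH-3T3 mouse fibroblasts cultured with fluconazole at 8 µg/mL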
[16] = loss of viability in HepG2 cells – cell-based, CellTiter-Glo, cherry-picked, cytotoxicity control for Shn3 inhibitor project, dose response (AID 624134); assay type: functional
[17] = NIH3T3 cell viability loss – ATP luminescence, mouse fibroblasts, counter-screen, dose response (AID 2010); assay type: functional, cell-based;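 also: cells exposed to compound for about 90 hours before reading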
HEK293 [18] = test: EBV LMP1 TES2 canonical NF-kB signalling blockers – cell-based, HEK293, luciferase, cherry-pick, dose response (AID 588343); assay type: functional; conditions: Homo sapiens
[19] = biological target: Serine/threonine-protein phosphatase (Candida dubliniensis (strain CD36 / CBS 7987 / NCPF 3949 / NRRLY-17841) (Yeast), UniProt B9W6M3); test: blockers of CaCl2-induced CDRE-lacZ signaling – S. cerevisiae, luminescence, secondary, dose response (AID 2388); assay type: functional, cell-based;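 also: yeast reporter cells carrying a calcineurin-responsive lacZ construct stimulated with calcium chloride; luminescent beta-galactosidase reporter signal in whole cells rather than isolated phosphatase activity; potency for inhibition where a drop in reporter signal means calcineurin blockade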
[20] = system: Streptococcus sp. 'group A'; test: Streptococcus pyogenes SK(-)GAS viability under kanamycin – luminescence, BacTiterGlo, confirmation, counter-screen for streptokinase expression inhibitor project, dose response (AID 1900); assay type: functional, organism-based
[21] = HEK-293T viability loss after treatment – luminescence, T-cell screen hits, cytotoxicity control for TCR NF-kB inhibitor project, dose response (AID 489026); assay type: functional, cell-based;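 also: cells exposed to compound about 14 hours before the viability readout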
cells [22] = assay type: functional, cell-based
Streptococcus = test: GAS UMAA2166 growth inhibition – luminescence, BacTiterGlo, counter-screen for streptokinase expression inhibitor project, dose response (AID 1915); assay type: functional, organism-based;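 also: potency for reduction of bacterial viability or growth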
[23] = reduction of Shn3 3'UTR-driven luciferase in osteoblasts – cell-based, Clone20 osteoblasts, firefly luciferase, cherry-picked, dose response (AID 624132); assay type: functional;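 also: firefly luciferase luminescence from reporter carrying the Shn3 3'UTR in osteoblasts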
[24] = fluconazole-exposed Candida albicans growth modulators – fluorescence, retest, confirmation (AID 2467); assay type: functional, cell-based
HEK293 [25] = test: SAR Analysis of small molecule inhibitors of T-cell specific antigen receptor-induced NF-kB activation in a HEK-293T cell line using a luminescence assay - Set 2. [Related pubchem assays (depositor defined):AID435003, AID435012, AID489026]; assay type: functional, cell-based; conditions: Homo sapiens
Jurkat [26] = test: SAR Analysis of small molecule inhibitors of T-cell specific antigen receptor-induced NF-kB activation in a Jurkat cell line using a luminescence assay - Set 2. [Related pubchem assays (depositor defined):AID435003, AID435012, AID465]; assay type: functional, cell-based; conditions: Homo sapiens
[27] = biological target: ATP-dependent molecular chaperone HSP82 (Candida albicans (strain WO-1) (Yeast), UniProt C4YTQ8); test: steroid-induced GRE reporter decrease in yeast – S. cerevisiae, luminescence, Hsp90 inhibitor project, dose response (AID 2400); assay type: functional, cell-based;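 also: beta-galactosidase luminescence from glucocorticoid response element reporter as proxy for Hsp90 function; inhibitor potency where signal loss means Hsp90 inhibition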
[28] = Trypanosoma cruzi growth suppression in host cells – NIH3T3 host cells, beta-gal luminescence, confirmation (AID 2044); assay type: functional, cell-based;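 also: intracellular parasites grown in NIH/3T3 mouse fibroblasts as host cells; luminescent beta-galactosidase reporter signal from transgenic T. cruzi replicating inside host cells; inhibitors lower the luminescence signal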
INS1 = test: INS-1E survival protection against cytokine death – cell-based, luminescence, retest, dose response (AID 449756); assay type: functional; conditions: Rattus norvegicus;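 also: cell death triggered by IL-1 beta plus TNF-alpha plus IFN-gamma mixture; protective hits raise ATP signal compared with cytokine alone wells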
[29] = non-specific 3'UTR reporter inhibition in Clone20-Shn3RL – cell-based, Renilla luciferase, cherry-picked, counter-screen for Shn3 inhibitor project, dose response (AID 624133); assay type: functional
cells [30] = assay type: functional, cell-based; remark: listed apart in the source
NIH3T3 = test: mammalian cell viability counter-check – Alamar Blue, fluconazole, dry powder, cytotoxicity control for antifungal drug resistance project, dose response (AID 488809); assay type: functional, cell-based; conditions: Mus musculus
Candida albicans [31] = test: antifungal activity against resistant Candida strain – CaCi-8, fluconazole, Alamar Blue, dry powder, dose response (AID 488807); assay type: functional, organism-based
Candida albicans [32] = test: fluconazole-resistant Candida strain growth inhibitors – CaCi-8 strain, dry powder, set 4, dose response (AID 488950); assay type: functional, organism-based
Candida albicans [33] = test: C. albicans growth inhibition with fluconazole – CaCi-2 strain, Alamar Blue, dry powder, set 4, dose response (AID 488943); assay type: functional, organism-based
Phospholipase A2 = Phospholipase A2 (Homo sapiens, UniProt P04054); assay type: functional;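 also: confirmatory dose-response counterscreen on phospholipase A2, testing hits that came from an ultra-high-throughput screen for ATG4B inhibitors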
Cysteine protease ATG4B = Cysteine protease ATG4B (Homo sapiens, UniProt Q9Y4P1); assay type: functional;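 also: Fluorescence-based dose-response confirmation assay measuring inhibition of ATG4B activity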
[34] = HEK-293T viability loss, compound-treated – cell-based, uHTS hits, cytotoxicity control for B/T-cell NF-kB inhibitor project, dose response (AID 489019); assay type: functional;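 also: IC50 reflects cytotoxicity as loss of cell viability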
Jurkat [35] = test: blockers of NF-kB activation in T cells – Jurkat, luciferase reporter, luminescence, B- and T-cell, dose response (AID 489004); assay type: functional, cell-based; conditions: Homo sapiens;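 also: NF-kB luciferase reporter Jurkat cells stimulated with PMA plus ionomycin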

T1 sequence (Q9Y256 whole entry): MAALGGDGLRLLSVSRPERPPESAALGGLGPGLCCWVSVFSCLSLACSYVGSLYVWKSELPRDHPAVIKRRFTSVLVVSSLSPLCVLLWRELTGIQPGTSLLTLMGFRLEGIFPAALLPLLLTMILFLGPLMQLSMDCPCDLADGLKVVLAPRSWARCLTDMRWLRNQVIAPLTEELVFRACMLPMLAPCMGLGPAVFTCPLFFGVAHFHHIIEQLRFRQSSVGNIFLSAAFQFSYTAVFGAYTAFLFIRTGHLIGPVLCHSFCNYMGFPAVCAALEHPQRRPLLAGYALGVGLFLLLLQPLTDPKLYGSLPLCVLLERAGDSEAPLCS
T3 sequence (P11940 whole entry): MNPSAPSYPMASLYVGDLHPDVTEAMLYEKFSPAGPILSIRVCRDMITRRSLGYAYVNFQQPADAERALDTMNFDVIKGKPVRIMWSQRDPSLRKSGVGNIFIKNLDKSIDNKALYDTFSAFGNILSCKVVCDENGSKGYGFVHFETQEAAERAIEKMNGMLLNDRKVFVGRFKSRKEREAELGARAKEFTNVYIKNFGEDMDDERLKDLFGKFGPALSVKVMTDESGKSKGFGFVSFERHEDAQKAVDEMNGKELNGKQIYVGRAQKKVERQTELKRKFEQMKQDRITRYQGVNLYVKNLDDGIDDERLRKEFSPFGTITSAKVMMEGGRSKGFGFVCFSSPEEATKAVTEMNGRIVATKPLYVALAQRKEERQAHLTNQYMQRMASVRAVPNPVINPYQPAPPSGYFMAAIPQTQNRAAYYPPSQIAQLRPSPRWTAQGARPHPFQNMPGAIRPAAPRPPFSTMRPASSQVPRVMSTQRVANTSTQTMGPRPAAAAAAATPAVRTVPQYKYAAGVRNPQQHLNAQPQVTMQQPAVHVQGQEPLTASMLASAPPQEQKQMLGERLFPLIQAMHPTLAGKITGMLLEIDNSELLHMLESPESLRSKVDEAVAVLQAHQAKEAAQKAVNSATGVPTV
Chain of NS3 (A3EZJ3 whole entry): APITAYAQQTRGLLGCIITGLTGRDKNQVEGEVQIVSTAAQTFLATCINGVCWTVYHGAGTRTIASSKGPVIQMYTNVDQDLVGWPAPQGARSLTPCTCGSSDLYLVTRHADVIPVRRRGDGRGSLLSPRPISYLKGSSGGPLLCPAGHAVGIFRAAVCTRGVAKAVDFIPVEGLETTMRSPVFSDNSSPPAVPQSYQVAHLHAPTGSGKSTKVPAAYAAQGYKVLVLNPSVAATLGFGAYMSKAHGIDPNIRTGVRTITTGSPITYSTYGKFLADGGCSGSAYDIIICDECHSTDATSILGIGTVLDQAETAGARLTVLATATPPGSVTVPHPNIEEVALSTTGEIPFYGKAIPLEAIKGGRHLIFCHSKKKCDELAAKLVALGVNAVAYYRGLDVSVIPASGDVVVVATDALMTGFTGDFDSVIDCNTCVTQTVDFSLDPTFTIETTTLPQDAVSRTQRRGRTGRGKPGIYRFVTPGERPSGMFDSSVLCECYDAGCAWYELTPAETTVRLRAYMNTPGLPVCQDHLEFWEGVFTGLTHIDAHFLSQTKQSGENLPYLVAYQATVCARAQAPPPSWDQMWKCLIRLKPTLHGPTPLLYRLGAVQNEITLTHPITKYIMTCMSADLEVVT
Chain of Voltage-gated inwardly rectifying potassium channel KCNH2 (Q12809 whole entry): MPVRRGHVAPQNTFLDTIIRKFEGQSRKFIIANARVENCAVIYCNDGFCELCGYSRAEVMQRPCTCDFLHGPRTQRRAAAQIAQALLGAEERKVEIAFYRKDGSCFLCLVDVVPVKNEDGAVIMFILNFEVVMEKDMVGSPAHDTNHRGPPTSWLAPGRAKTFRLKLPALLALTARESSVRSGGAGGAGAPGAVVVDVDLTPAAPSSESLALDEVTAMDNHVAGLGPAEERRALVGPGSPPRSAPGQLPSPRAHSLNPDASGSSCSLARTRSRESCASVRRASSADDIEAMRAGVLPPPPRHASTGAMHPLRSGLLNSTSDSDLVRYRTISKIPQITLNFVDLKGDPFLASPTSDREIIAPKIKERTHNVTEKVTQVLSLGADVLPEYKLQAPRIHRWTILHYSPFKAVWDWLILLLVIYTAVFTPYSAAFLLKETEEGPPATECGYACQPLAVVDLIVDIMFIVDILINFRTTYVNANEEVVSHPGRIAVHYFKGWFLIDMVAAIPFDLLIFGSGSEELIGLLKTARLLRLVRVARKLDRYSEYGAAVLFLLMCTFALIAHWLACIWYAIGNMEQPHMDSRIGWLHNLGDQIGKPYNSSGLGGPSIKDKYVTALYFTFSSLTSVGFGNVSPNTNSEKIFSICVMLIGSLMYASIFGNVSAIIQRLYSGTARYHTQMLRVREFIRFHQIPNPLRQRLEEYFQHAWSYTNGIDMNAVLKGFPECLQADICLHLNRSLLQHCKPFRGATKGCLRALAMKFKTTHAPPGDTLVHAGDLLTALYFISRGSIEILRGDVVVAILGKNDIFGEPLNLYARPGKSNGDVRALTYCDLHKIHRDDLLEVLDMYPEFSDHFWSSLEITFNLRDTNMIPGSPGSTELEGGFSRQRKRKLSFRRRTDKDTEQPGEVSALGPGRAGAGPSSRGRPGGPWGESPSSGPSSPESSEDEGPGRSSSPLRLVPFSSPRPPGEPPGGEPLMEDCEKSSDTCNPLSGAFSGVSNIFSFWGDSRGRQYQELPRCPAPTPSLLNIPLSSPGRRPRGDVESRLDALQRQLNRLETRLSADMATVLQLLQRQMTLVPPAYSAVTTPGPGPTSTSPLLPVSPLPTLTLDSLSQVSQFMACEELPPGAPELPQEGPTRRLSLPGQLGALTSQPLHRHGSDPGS
Chain of ATP-dependent molecular chaperone HSP82 (C4YTQ8 whole entry): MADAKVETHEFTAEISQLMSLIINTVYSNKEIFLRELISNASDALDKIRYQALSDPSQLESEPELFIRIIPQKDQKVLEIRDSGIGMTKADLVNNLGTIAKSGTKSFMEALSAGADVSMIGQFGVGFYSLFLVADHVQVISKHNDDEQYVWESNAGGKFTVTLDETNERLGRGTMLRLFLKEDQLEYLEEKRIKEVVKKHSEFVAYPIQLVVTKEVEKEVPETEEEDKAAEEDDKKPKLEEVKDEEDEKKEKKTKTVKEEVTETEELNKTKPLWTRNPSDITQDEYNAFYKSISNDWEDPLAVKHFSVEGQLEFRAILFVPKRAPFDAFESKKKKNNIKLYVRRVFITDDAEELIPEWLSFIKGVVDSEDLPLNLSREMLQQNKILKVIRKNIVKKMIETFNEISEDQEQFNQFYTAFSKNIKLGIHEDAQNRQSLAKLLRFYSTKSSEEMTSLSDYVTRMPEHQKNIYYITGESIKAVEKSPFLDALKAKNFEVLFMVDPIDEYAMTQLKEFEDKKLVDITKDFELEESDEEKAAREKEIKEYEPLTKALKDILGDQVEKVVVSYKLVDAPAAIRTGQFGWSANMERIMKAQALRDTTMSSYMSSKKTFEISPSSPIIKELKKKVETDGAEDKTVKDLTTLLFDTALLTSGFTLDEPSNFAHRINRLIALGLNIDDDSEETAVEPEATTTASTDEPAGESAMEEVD
Chain of Genome polyprotein (P29990 2492-3391 limits assumed): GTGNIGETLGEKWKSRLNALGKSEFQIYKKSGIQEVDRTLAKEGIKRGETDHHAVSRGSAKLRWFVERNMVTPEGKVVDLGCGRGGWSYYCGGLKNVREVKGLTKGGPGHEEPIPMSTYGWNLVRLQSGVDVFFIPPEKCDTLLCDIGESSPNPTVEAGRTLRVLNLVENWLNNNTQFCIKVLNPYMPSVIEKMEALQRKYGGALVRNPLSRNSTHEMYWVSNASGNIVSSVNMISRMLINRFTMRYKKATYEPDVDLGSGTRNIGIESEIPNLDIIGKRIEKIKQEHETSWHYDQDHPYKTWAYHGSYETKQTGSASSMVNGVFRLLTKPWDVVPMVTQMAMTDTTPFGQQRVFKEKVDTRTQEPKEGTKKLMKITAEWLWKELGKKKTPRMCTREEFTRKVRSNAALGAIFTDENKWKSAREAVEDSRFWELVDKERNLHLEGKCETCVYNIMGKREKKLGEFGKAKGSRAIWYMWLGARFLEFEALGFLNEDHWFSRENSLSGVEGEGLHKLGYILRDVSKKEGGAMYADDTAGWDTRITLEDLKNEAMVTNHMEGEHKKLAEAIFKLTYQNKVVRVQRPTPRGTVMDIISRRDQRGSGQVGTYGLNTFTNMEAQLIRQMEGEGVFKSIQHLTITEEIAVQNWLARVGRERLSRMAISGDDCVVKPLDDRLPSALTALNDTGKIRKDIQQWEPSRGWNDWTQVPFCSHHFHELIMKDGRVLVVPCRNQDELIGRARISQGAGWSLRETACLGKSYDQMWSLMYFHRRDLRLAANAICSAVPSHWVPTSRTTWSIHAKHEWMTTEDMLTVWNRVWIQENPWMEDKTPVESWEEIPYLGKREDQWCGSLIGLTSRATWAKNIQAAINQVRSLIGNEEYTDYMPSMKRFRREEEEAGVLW
Chain of Nuclear receptor subfamily 0 group B member 1 (P51843 whole entry): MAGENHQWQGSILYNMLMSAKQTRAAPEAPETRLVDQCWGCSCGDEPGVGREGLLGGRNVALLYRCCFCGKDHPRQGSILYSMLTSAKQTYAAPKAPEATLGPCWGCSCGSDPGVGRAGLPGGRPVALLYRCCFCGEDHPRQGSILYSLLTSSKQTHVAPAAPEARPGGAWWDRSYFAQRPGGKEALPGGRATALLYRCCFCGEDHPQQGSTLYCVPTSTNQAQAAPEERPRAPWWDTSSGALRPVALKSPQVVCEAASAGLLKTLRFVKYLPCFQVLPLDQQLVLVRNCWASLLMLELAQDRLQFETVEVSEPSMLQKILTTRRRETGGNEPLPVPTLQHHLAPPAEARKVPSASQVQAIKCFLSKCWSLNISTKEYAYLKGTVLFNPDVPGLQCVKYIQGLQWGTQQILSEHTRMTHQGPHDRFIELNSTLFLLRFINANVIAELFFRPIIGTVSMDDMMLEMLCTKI
Chain of Phospholipase A2 (P04054 whole entry): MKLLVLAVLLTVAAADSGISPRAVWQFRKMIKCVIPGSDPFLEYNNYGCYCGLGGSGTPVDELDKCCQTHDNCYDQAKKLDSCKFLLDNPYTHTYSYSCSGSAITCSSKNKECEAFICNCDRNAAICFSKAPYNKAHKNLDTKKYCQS

## COc1cc(C(=O)O)cc(OC)c1OC [3,4,5-TRIMETHOXYBENZOIC ACID]
HEK293 [1]
  IC50: > 67.5 µM (inactive)
[2]
  IC50: > 67.5 µM (inactive)

## CN(C)CCCN(C(=O)c1cc(-c2cccs2)nc2ccccc12)c1nc2ccc(F)cc2s1
CAAX prenyl protease 2 [3]
  AC50: 49.5 µM (active)
CAAX prenyl protease 2 [4]
  AC50: 33.6 µM (active)

## NS(=O)(=O)c1ccc(N/N=C/c2ccc(O)c(O)c2O)c([N+](=O)[O-])c1
[5]
  IC50: > 66 µM (inactive)
[6]
  IC50: > 80 µM (inactive)
[7]
  IC50: > 50 µM (not active)
Beta-arrestin-1
  IC50: 11 µM (active)
Genome polyprotein
  IC50: 4.59 µM (active)
[8]
  IC50: > 66 µM (inactive)
Caspase-6
  AC50: 0.351 µM (active)
[9]
  IC50: > 50 µM (not active)

## CCOc1cccc(-c2c(C(=O)N/N=C/c3cccs3)nnn2-c2nonc2N)c1
CAAX prenyl protease 2 [10]
  AC50: 1.53 µM (active)
CAAX prenyl protease 2 [11]
  AC50: 15.3 µM (active)
CAAX prenyl protease 2 [4]
  AC50: 37.1 µM (active)

## COc1cc(C2C(C(=O)c3ccc(C)o3)=C(O)C(=O)N2c2cc(C)on2)ccc1OCc1ccccc1 (stereo not given)
[12]
  CC50: > 100 µM (inactive)
NS3
  IC50: 2.68 µM (active)

## NCCNC(=O)c1ncsc1-c1cccc(F)c1
[13]
  AC50: 35.5 µM (inconclusive)

## CCCCC(=O)NC(c1ccc(Cl)cc1Cl)c1ccc2cccnc2c1O (stereo not given)
HEK293 [14]
  IC50: 26.8 µM (inactive)
[15]
  EC50: 13.3 µM (active)
[16]
  AC50: > 70 µM (inactive)
[17]
  EC50: 0.57 µM (active)
HEK293 [18]
  AC50: 4.57 µM (active)
[19]
  EC50: > 180 µM (inactive)
[20]
  EC50: 1.29 µM (active)
[21]
  IC50: > 80 µM (inactive)
Cells [22]
  EC50: 8.53 µM (active)
Streptococcus
  EC50: 2.12 µM (active)
[23]
  AC50: 0.67 µM (active)
[24]
  EC50: 0.698 µM (active)
HEK293 [25]
  IC50: 3.23 µM (active)
Jurkat [26]
  IC50: 3.7 µM (active)
[27]
  EC50: > 150 µM (inactive)
[28]
  EC50: 0.126 µM (active)
INS1
  AC50: 0.422 µM (active)
[29]
  AC50: 0.861 µM (active)
Cells [30]
  EC50: > 350 µM (not active)

## O=C(c1cccs1)N1CCN(c2ccnc3cc(Cl)ccc23)CC1
NIH3T3
  AC50: 17.9 µM (active)
Candida albicans [31]
  AC50: 5.31 µM (active)
Candida albicans [32]
  AC50: 2.96 µM (active)
Candida albicans [33]
  AC50: 1.71 µM (active)

## O=C(c1ccc(OC2CCN(C/C=C/c3ccc(F)cc3)CC2)cc1)N1CCCC1
Phospholipase A2
  IC50: 7.22 µM (active)
Cysteine protease ATG4B
  IC50: 11.8 µM (active)

## C[C@H](NC(=O)c1nc[nH]c1C(=O)N[C@@H](C)C(=O)OCc1ccccc1)C(=O)OCc1ccccc1
[34]
  IC50: > 80 µM (inactive)
Jurkat [35]
  IC50: 73.6 µM (inactive)

From ChEMBL document CHEMBL1201862, “PubChem BioAssay data set” (2004)
